The values below are quoted from earlier work in paper PMC5129521 (Diabetes, Obesity & Metabolism, 2016).

The conditions of the data set: mice.

In the case of `CCCCCCCCCCCCCCCC(=O)N[C@@H](CCC(=O)NCCCC[C@H](NC(=O)[C@H](C)NC(=O)[C@H](C)NC(=O)[C@H](CCC(N)=O)NC(=O)CNC(=O)[C@H](CCC(=O)O)NC(=O)[C@H](CC(C)C)NC(=O)[C@H](Cc1ccc(O)cc1)NC(=O)[C@H](CO)NC(=O)[C@H](CO)NC(=O)[C@@H](NC(=O)[C@H](CC(=O)O)NC(=O)[C@H](CO)NC(=O)[C@@H](NC(=O)[C@H](Cc1ccccc1)NC(=O)[C@@H](NC(=O)CNC(=O)[C@H](CCC(=O)O)NC(=O)[C@H](C)NC(=O)[C@@H](N)Cc1cnc[nH]1)[C@@H](C)O)[C@@H](C)O)C(C)C)C(=O)N[C@@H](CCC(=O)O)C(=O)N[C@@H](Cc1ccccc1)C(=O)N[C@H](C(=O)N[C@@H](C)C(=O)N[C@@H](Cc1c[nH]c2ccccc12)C(=O)N[C@@H](CC(C)C)C(=O)N[C@H](C(=O)N[C@@H](CCCNC(=N)N)C(=O)NCC(=O)N[C@@H](CCCNC(=N)N)C(=O)NCC(=O)O)C(C)C)[C@@H](C)CC)C(=O)O` [Liraglutide], the “Terminal plasma half‐life” value is roughly 7 h.
